Measurements from patent US12187705B2, “Heteroaryl-triazole and heteroaryl-tetrazole compounds as pesticides” (Bayer Aktiengesellschaft, priority 2018, dated 2025).

Key:
Format in all cases: in vivo
[1] = system: Diabrotica balteata; assay: Diabrotica balteata spray test; conditions: Diabrotica balteata, 168 h; 160 μg/well, wheat seeds, after 7 days; read-out: efficacy (seedlings grown)
Outline: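 Efficacy (%) read 7 days after infesting treated seedlings with 10-20 banded cucumber beetle larvae, 100% meaning growth as in uninfected untreated control and 0% no growth. Test solutions in water containing 1000 ppm emulsifier were sprayed onto wheat seeds germinated for 1 day on agar.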

[2] = system: Boophilus microplus; assay: Boophilus microplus injection test; conditions: Rhipicephalus microplus, 168 h, 20 μg/animal, egg deposition after 7 days, read-out: efficacy (infertile eggs)
Outline: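 Efficacy expresses the share of infertile eggs (100% all infertile, 0% all fertile), judged at 7 days or at hatching around day 42. Five adult engorged females were each injected abdominally with 1 μl of DMSO compound solution and incubated in a climate chamber.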

[3] = system: Musca domestica strain WHO-N; assay: Musca domestica test (MUSCDO surface treatment & contact assay); conditions: 24 hours after contact, read-out: efficacy (mortality); for mortality at 20 mg/m2: surface concentration 20 mg/m^2, 30 minutes exposure
Method: Musca domestica Test (MUSCDO Surface Treatment & Contact Assay)
Solvent: Aceton+2000 ppm rapeseed oil methyl ester (RME)
In order to produce a sufficient, active ingredient containing solution it is necessary to solve the test-compound in the solvent-mix (Acetone at 2 mg/ml/RME 2000 ppm). This solution is pipetted onto a glazed tile and after evaporation of the Acetone, adult flies of the species Musca domestica strain WHO-N are placed onto the dried surface. The exposure time is 30 minutes.
Mortality in percent (%) is determined 24 hours after contact to the treated surface. 100% mortality means that all test-insects are dead, whereas 0% means that not a single insect died.

[4] = system: Culex quinquefasciatus strain P00; assay: Culex quinquefasciatus test (CULXFA surface treatment & contact assay); conditions: 24 hours after contact, read-out: efficacy (mortality); for mortality at 4 mg/m2: surface concentration 4 mg/m^2, 30 minutes exposure; for mortality at 20 mg/m2: surface concentration 20 mg/m^2, 30 minutes exposure
Outline: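 Compound dissolved in acetone (2 mg/ml) with 2000 ppm rapeseed oil methyl ester, applied to glazed tile and dried. Adult strain P00 mosquitoes exposed to the surface for 30 minutes. Percent mortality scored 24 hours after contact.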

[5] = system: cattle ticks (Boophilus microplus) strane Parhurst, SP-resistant; assay: Boophilus microplus dip test; conditions: 100 ppm, egg deposition after 7 days
Method: Boophilus microplus—Dip Test
Test animal: cattle ticks (Boophilus microplus) strane Parhurst, SP-resistant
Solvent: dimethyl sulfoxide
To produce a suitable preparation of active compound, 10 mg of active compound are dissolved in 0.5 ml solvent, and the concentrate is diluted with water to the desired concentration.
This compound solution is pipetted into tubes. 8-10 engorged, adult, female cattle ticks (Boophilus microplus) are placed in perforated tubes. These tubes are immersed in the aqueous compound solution until the ticks are completely moistened. After the liquid has drained off, the ticks are transferred to a filter paper in a plastic tray and stored in a climate chamber.
After 7 days egg deposition of fertile eggs is monitored. Eggs where fertility is not visible are stored in a climate chamber till hatching after about 42 days. An efficacy of 100% means all eggs are infertile; 0% means all eggs are fertile.

[6] = system: Anopheles funestus strain FUMOZ-R; assay: Anopheles funestus test (ANPHFU surface treatment & contact assay); conditions: surface concentration 20 mg/m^2, 30 minutes exposure, 24 hours after contact, read-out: efficacy (mortality)
Outline: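 Compound dissolved in acetone (2 mg/ml) with 2000 ppm rapeseed oil methyl ester, dried onto glazed tile; adult Anopheles funestus FUMOZ-R exposed for 30 minutes. Percent mortality scored 24 hours after contact.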

SMILES	pest or weed control at 160 µg/disc, 160 µg/well [1]	pest or weed control at 0.02 mg [2]	mortality at 20 mg/m2 [3]	mortality at 4 mg/m2 [4]	mortality at 20 mg/m2 [4]	efficacy (infertile eggs) [5]	mortality at 20 mg/m2 [6]	mortality at 4 mg/m2 ([3]; surface concentration 4 mg/m^2, 30 minutes exposure)
CCN(C(=O)c1cc(Cl)cc(S(C)(=O)=O)c1)C(C)c1ncnn1-c1ncccn1 (stereo not shown) [Example I-040, 3-chloro-N-ethyl-5-(methylsulfonyl)-N-{1-[1-(pyrimidin-2-yl)-1H-1,2,4-triazol-5-yl]ethyl}benzamide]	100%	100%	80 to 100%	80 to 100%	80 to 100%	–	–	–
C[C@@H](NC(=O)c1cc(Cl)cc(S(=O)(=O)C2CC2)c1)c1ncnn1-c1ncccn1 [Example I-042]	100%	100%	80 to 100%	80 to 100%	80 to 100%	100%	85 to 100%	80 to 100%
